From ChEMBL document CHEMBL6182913, “Design of Potent Small-Molecule Stimulator of Interferon Gene Inhibitor and Stimulator of Interferon Gene Mutant-Specific Degrader” (J Med Chem, 2025)
Activity calls are given as the source filed them. The rule behind the calls is not given here.

Legend:
[1] = Cytotoxicity against human THP1-Blue ISG cells assessed as inhibition of cell growth at 10 uM incubated for 24 hrs by MTS assay relative to control; type: toxicity, cell-based
[2] = target: T1, Stimulator of interferon genes protein (Mus musculus) (UniProt Q3TBT3); assay: Inhibition of STING in mouse BMDM cells assessed as inhibition of cGAMP-induced CXCL-10 release at 0.05 to 0.5 uM pretreated with compound for 6 hrs followed by cGAMP addition and measured after 18 hrs by ELISA; type: cell-based; settings: dose 0.05-0.5 µM, time 24.0 hrs
T1 sequence (whole entry): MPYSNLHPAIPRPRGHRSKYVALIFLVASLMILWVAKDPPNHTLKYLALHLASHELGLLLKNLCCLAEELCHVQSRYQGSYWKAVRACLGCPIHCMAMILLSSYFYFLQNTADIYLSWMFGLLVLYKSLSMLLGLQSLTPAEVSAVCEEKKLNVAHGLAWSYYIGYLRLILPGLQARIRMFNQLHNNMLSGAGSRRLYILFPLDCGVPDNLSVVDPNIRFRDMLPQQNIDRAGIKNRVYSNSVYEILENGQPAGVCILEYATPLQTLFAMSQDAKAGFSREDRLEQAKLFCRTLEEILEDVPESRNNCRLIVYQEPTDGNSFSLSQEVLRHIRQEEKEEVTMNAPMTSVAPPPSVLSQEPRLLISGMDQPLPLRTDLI

[3] = target: T2, Stimulator of interferon genes protein (Homo sapiens, UniProt Q86WV6); assay: Inhibition of cGAMP-induced STING R232 mutant transfected human THP-1 cells preincubated with compound for 6 hrs followed by cGAMP addition and measured after 18 hrs by QUANTI-Luc based microplate reader analysis; type: cell-based
Target sequence in this assay (Q86WV6 whole entry, looked up, change not shown): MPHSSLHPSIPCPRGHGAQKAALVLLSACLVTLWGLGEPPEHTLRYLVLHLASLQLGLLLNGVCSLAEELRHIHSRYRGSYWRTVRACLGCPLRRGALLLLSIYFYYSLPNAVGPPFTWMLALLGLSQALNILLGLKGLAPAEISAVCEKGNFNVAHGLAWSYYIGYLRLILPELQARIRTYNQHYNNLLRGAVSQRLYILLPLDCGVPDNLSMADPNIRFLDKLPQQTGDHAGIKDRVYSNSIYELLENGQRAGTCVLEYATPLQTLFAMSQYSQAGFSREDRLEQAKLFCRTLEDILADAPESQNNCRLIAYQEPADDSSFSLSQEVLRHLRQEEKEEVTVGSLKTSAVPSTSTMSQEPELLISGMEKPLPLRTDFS

[4] = Cmax in mouse at 20 mg/kg, po by LC-MS/MS analysis; type: ADME, organism-based; settings: in vivo, read-out: Cmax
[5] = target: T2, Stimulator of interferon genes protein; assay: Inhibition of STING in human THP-1 cells assessed as inhibition of cGAMP-induced IFN-beta release at 0.05 to 0.5 uM pretreated with compound for 6 hrs followed by cGAMP addition and measured after 18 hrs by ELISA; type: cell-based; settings: dose 0.05-0.5 µM, time 24.0 hrs
Target sequence in this assay (Q86WV6 whole entry): as the sequence (Q86WV6 whole entry, looked up, change not shown) above

[6] = target: T3, Stimulator of interferon genes protein (Mus musculus, UniProt Q3TBT3); assay: Inhibition of cGAMP-induced mouse STING transfected in human THP-1 cells preincubated with compound for 6 hrs followed by cGAMP addition and measured after 18 hrs by QUANTI-Luc based microplate reader analysis; type: cell-based
T3 sequence (Q3TBT3 whole entry): T1 sequence (whole entry)

[7] = Metabolic stability in human liver microsomes assessed as half life at 10 uM in presence of NADPH by LC-MS/MS analysis; type: ADME, Microsome
[8] = Metabolic stability in mouse liver microsomes assessed as half life at 10 uM in presence of NADPH by LC-MS/MS analysis; type: ADME, Microsome
[9] = Metabolic stability in human plasma assessed as half life in presence of NADPH by LC-MS/MS analysis; type: ADME, cell-free
[10] = target: T2, Stimulator of interferon genes protein; assay: Inhibition of cGAMP-induced STING S154 mutant transfected in human THP-1 cells preincubated with compound for 6 hrs followed by cGAMP addition and measured after 18 hrs by QUANTI-Luc based microplate reader analysis; type: cell-based
Target sequence in this assay (Q86WV6 whole entry, looked up, change not shown): as above

[11] = target: T1, Stimulator of interferon genes protein (Mus musculus); assay: In vivo inhibition of cGAMP-induced STING activation in autoimmune disease female C57BL/6 mouse model assessed as decrease in cGAMP-induced serum INF-beta level at 10 mg/kg, sc pretreated with compound for 2 hrs followed by cGAMP addition and measured after 3 hrs by ELISA; type: functional, organism-based
[12] = target: T1, Stimulator of interferon genes protein (Mus musculus); assay: Inhibition of STING in mouse BMDM cells assessed as inhibition of cGAMP-induced IFN-beta release at 0.05 to 0.5 uM pretreated with compound for 6 hrs followed by cGAMP addition and measured after 18 hrs by ELISA; type: cell-based; settings: dose 0.05-0.5 µM, time 24.0 hrs
[13] = target: T2, Stimulator of interferon genes protein; assay: Inhibition of STING activation in human THP1-Blue ISG cells assessed as decrease in cGAMP-induced IRF3 phosphorylation at 0.1 to 1 uM preincubated with compound for 6 hrs followed by cGAMP addition and measured after 3 hrs by Western blotting analysis; type: cell-based; settings: dose 0.1-1 µM, time 9.0 hrs
Target sequence in this assay (Q86WV6 whole entry): as the sequence (Q86WV6 whole entry, looked up, change not shown) above

[14] = target: T4, Stimulator of interferon genes protein (Homo sapiens, UniProt Q86WV6, G230A/R293Q/R71H); assay: Inhibition of diABZI-induced STING HAQ mutant transfected in human THP1-Blue ISG cells preincubated with compound for 6 hrs followed by diABZI addition and measured after 18 hrs by QUANTI-Blue based microplate reader analysis; type: cell-based
T4 sequence (Q86WV6 whole entry R71H/G230A/R293Q): as the sequence (Q86WV6 whole entry, looked up, change not shown) above, with R71H, G230A, R293Q counted along it

[15] = target: T2, Stimulator of interferon genes protein; assay: Inhibition of STING activation in human THP1-Blue ISG cells assessed as decrease in cGAMP-induced STING phosphorylation at 0.1 to 1 uM preincubated with compound for 6 hrs followed by cGAMP addition and measured after 3 hrs by Western blotting analysis; type: cell-based; settings: dose 0.1-1 µM, time 9.0 hrs
Target sequence in this assay (Q86WV6 whole entry): as the sequence (Q86WV6 whole entry, looked up, change not shown) above

[16] = target: T4, Stimulator of interferon genes protein; assay: Inhibition of cGAMP-induced STING HAQ mutant transfected in human THP1-Blue ISG cells preincubated with compound for 6 hrs followed by cGAMP addition and measured after 18 hrs by QUANTI-Blue based microplate reader analysis; type: cell-based
[17] = target: T1, Stimulator of interferon genes protein (Mus musculus); assay: In vivo inhibition of cGAMP-induced STING activation in autoimmune disease female C57BL/6 mouse model assessed as decrease in cGAMP-induced serum CXCL-10 level at 10 mg/kg, sc pretreated with compound for 2 hrs followed by cGAMP addition and measured after 3 hrs by ELISA; type: functional, organism-based
[18] = Metabolic stability in mouse plasma assessed as half life in presence of NADPH by LC-MS/MS analysis; type: ADME, cell-free

SMILES	inhibition at 24 h, 10 µM [1] [%]	inhibition [2]	IC50 [3] [nM]	Cmax [4] [nM]	inhibition [5]	IC50 [6] [nM]	half-life at 10 µM [7] [h]	half-life at 10 µM [8] [h]	half-life [9] [h]	IC50 [10] [nM]	inhibition [11]	inhibition [12]	inhibition [13]	IC50 [14] [nM]	inhibition [15]	IC50 [16] [nM]	inhibition [17]	half-life [18] [h]
CC(C)(C)c1ccc(N2C(=O)c3ccccc3C(C(N)=O)C2c2cc3cc(-c4ccc(C(=O)Nc5ccc(O)c(NS(C)(=O)=O)c5)cc4)ccc3o2)cc1Cl (stereo not given)	36.5	Active	30	200	Active	20	> 1	> 1	> 4	210	Active	Active	Active	110	Active	100	Active	
COc1ccc2c(c1)C(=O)N(c1ccc(C(C)(C)C)c(Cl)c1)C(c1cc3cc(-c4ccc(C(=O)Nc5ccc(O)c(NS(C)(=O)=O)c5)cc4)ccc3o1)C2C(N)=O (stereo not given)	37.3	Active	30	200	Active	30	> 1	> 1	> 4	260	Active	Active	Active	80	Active	80	Active	> 4
